pIC50: −log10 of the molar value.
Target: PIK3CG (human) (UniProt P48736)
Assay: Assessment of PIK3CG Kinase Activity

PIK3CG (human), sequence (P48736 whole entry, looked up): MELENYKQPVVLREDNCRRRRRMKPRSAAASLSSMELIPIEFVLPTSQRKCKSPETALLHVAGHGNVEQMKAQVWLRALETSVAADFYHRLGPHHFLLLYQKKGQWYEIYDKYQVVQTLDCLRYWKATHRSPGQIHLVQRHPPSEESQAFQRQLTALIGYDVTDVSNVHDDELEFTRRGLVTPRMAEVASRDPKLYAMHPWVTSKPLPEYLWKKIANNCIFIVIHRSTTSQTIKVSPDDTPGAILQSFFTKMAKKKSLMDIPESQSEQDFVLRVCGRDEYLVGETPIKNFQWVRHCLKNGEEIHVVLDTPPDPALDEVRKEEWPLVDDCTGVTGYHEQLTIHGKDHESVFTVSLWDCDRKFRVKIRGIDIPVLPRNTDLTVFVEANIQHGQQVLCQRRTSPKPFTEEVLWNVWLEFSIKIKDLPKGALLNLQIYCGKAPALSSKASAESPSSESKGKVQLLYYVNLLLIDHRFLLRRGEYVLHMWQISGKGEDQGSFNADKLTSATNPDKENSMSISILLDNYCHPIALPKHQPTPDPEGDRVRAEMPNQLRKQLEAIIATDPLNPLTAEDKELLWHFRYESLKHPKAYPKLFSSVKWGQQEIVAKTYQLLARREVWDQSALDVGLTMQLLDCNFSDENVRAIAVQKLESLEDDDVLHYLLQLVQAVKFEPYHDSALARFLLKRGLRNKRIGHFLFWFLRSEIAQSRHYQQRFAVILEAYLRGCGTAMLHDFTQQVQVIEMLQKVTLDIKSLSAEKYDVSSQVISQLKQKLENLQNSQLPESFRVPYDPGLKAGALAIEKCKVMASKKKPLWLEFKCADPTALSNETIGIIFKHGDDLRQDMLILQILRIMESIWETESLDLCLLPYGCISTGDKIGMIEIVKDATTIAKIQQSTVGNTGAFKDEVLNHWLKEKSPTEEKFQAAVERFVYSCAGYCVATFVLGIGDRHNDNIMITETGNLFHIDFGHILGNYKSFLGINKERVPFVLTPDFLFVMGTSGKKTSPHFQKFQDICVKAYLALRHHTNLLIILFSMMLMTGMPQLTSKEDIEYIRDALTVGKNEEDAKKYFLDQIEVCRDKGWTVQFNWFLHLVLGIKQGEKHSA

pIC50, > 6.10:
CN1C(=O)CN(c2ccccc2)c2nc(Nc3cccc(S(=O)(=O)CCNC4CC4)c3)ncc21
CC(C)N1CC(=O)N(C)c2cnc(Nc3cc(NC(=O)Cc4noc5ccccc45)cc(S(C)(=O)=O)c3)nc21
CC(C)N1CC(=O)N(C)c2cnc(Nc3cc(NC(=O)N[C@@H]4CCN(C5CCOCC5)C4)cc(S(C)(=O)=O)c3)nc21
CC(C)N1CC(=O)N(C)c2cnc(Nc3cc(NS(C)(=O)=O)cc(C(F)(F)F)c3)nc21
CC(C)N1CC(=O)N(C)c2cnc(Nc3cc(NC(=O)C[C@H]4CCN(C5CCCC5)C4)cc(S(C)(=O)=O)c3)nc21
CC(C)N1CC(=O)N(C)c2cnc(Nc3cc(N4CCNC4=O)cc(S(C)(=O)=O)c3)nc21
CC(C)N1CC(=O)N(C)c2cnc(Nc3cc(NC(=O)NC[C@H]4CCCN4)cc(S(C)(=O)=O)c3)nc21
CC(C)N1CC(=O)N(C)c2cnc(Nc3cc(NC(=O)NCc4ccncc4)cc(S(C)(=O)=O)c3)nc21
CC(C)N1CC(=O)N(C)c2cnc(Nc3cc(NC(=O)Cc4ccc(Cl)nc4)cc(S(C)(=O)=O)c3)nc21
CC(C)N1CC(=O)N(C)c2cnc(Nc3cc(NC(=O)[C@@H](C)c4ccccc4)cc(S(C)(=O)=O)c3)nc21
CC(C)N1CC(=O)N(C)c2cnc(Nc3cc(N(C)C(=O)N[C@@H](C)c4ccccc4)cc(S(C)(=O)=O)c3)nc21
COc1cc(Nc2ncc3c(n2)N(C(C)C)CC(=O)N3C)cc(S(C)(=O)=O)c1
CC(C)N1CC(=O)N(C)c2cnc(Nc3cccc(S(=O)(=O)CCN4CCOCC4)c3)nc21
CC(C)N1CC(=O)N(C)c2cnc(Nc3cc(NC(=O)NC[C@H]4CCCN4C4CCCC4)cc(S(C)(=O)=O)c3)nc21
CC(C)N1CC(=O)N(C)c2cnc(Nc3cc(NC(=O)Cc4cccs4)cc(S(C)(=O)=O)c3)nc21
CC(C)N1CC(=O)N(C)c2cnc(Nc3cc(NC(=O)C(C)(C)c4ccccc4)cc(S(C)(=O)=O)c3)nc21
CC(C)N1CC(=O)N(C)c2cnc(Nc3cc(NC(=O)N[C@H]4CCN(Cc5ccccc5)C4)cc(S(C)(=O)=O)c3)nc21
CC(C)N1CC(=O)N(C)c2cnc(Nc3cccc(S(=O)(=O)CCN4CCN(C)CC4)c3)nc21
CC(C)N1CC(=O)N(C)c2cnc(Nc3cc(NC(=O)Cc4cc5ccccc5n4C)cc(S(C)(=O)=O)c3)nc21
CC(C)N1CC(=O)N(C)c2cnc(Nc3cc(NC(=O)NC[C@@H]4CCNC4)cc(S(C)(=O)=O)c3)nc21
CC(C)N1CC(=O)N(C)c2cnc(Nc3cc(Cl)cc(S(C)(=O)=O)c3)nc21
CC(C)N1CC(=O)N(C)c2cnc(Nc3cc(NC(=O)C4CNCCO4)cc(S(C)(=O)=O)c3)nc21 (centres undefined)
CC(C)N1CC(=O)N(C)c2cnc(Nc3cc(NC(=O)NC4CCN(C)CC4)cc(S(C)(=O)=O)c3)nc21
CC(C)N1CC(=O)N(C)c2cnc(Nc3cc(NS(=O)(=O)c4ccc(F)cc4)cc(S(C)(=O)=O)c3)nc21
CC(C)N1CC(=O)N(C)c2cnc(Nc3cc(-c4cc(C5CC5)[nH]n4)cc(S(C)(=O)=O)c3)nc21
CC(C)N1CC(=O)N(C)c2cnc(Nc3cc(NC(=O)N[C@H]4CCN(C5CCOCC5)C4)cc(S(C)(=O)=O)c3)nc21
CC(C)N1CC(=O)N(C)c2cnc(Nc3cc(N(C)C(=O)Cc4ccccc4)cc(S(C)(=O)=O)c3)nc21
CC(C)N1CC(=O)N(C)c2cnc(Nc3cc(NS(C)(=O)=O)cc(C(=O)NCc4ccncc4)c3)nc21
CC(C)N1CC(=O)N(C)c2cnc(Nc3cc(C(=O)NCCN(C)C)cc(S(C)(=O)=O)c3)nc21
CC(C)N1CC(=O)N(C)c2cnc(Nc3cc(NC(=O)C[C@@H]4CCNC4)cc(S(C)(=O)=O)c3)nc21
CC(C)N1CC(=O)N(C)c2cnc(Nc3cc(NC(=O)CCC4CCCC4)cc(S(C)(=O)=O)c3)nc21
CC(C)N1CC(=O)N(C)c2cnc(Nc3cc(NS(=O)(=O)Cc4ccccc4)cc(S(C)(=O)=O)c3)nc21
CC(C)N1CC(=O)N(C)c2cnc(Nc3cc(NC(=O)[C@@H](N)c4ccccc4)cc(S(C)(=O)=O)c3)nc21
CC(C)N1CC(=O)N(C)c2cnc(Nc3cc(C(N)=O)cc(S(C)(=O)=O)c3)nc21
CC(C)N1CC(=O)N(C)c2cnc(Nc3cc(NC(=O)[C@H](N)c4ccccc4)cc(S(C)(=O)=O)c3)nc21
Cc1ccccc1CC(=O)Nc1cc(Nc2ncc3c(n2)N(C(C)C)CC(=O)N3C)cc(S(C)(=O)=O)c1
CC(C)N1CC(=O)N(C)c2cnc(Nc3cccc(S(=O)(=O)CCO)c3)nc21
CC(C)N1CC(=O)N(C)c2cnc(Nc3cc(C(=O)NCCC4CCCN4C)cc(C(F)(F)F)c3)nc21 (centres undefined)
CC(C)CCC(=O)Nc1cc(Nc2ncc3c(n2)N(C(C)C)CC(=O)N3C)cc(S(C)(=O)=O)c1
CC(C)N1CC(=O)N(C)c2cnc(Nc3cc(NC(=O)C4CN(C5CCCC5)CCO4)cc(S(C)(=O)=O)c3)nc21 (centres undefined)
CC(C)N1CC(=O)N(C)c2cnc(Nc3cc(S(C)(=O)=O)cc(S(C)(=O)=O)c3)nc21
Cc1cc(CC(=O)N(C)c2cc(Nc3ncc4c(n3)N(C(C)C)CC(=O)N4C)cc(S(C)(=O)=O)c2)on1
CC(C)NCCS(=O)(=O)c1cccc(Nc2ncc3c(n2)N(C(C)C)CC(=O)N3C)c1
CC(C)N1CC(=O)N(C)c2cnc(Nc3cc(NS(C)(=O)=O)cc(C(=O)NC4CCN(C)C4)c3)nc21 (centres undefined)
CC(C)N1CC(=O)N(C)c2cnc(Nc3cc(N(C)C(=O)N[C@H]4CCN(Cc5ccccc5)C4)cc(S(C)(=O)=O)c3)nc21
CC(C)N1CC(=O)N(C)c2cnc(Nc3cc(NC(=O)N(C)C[C@H]4CCCN4C4CCCC4)cc(S(C)(=O)=O)c3)nc21
CC(C)N1CC(=O)N(C)c2cnc(Nc3cc(C(=O)N(C)Cc4ccncc4)cc(S(C)(=O)=O)c3)nc21
CC(C)N1CC(=O)N(C)c2cnc(Nc3cc(C(N)=O)cc(C(F)(F)F)c3)nc21
CC(C)N1CC(=O)N(C)c2cnc(Nc3cc(NC(=O)N[C@H]4CCNC4)cc(S(C)(=O)=O)c3)nc21
CC(C)N1CC(=O)N(C)c2cnc(Nc3cc(NC(=O)NC[C@@H]4CCCN4C4CCCC4)cc(S(C)(=O)=O)c3)nc21
CNS(=O)(=O)c1cccc(Nc2ncc3c(n2)N(C(C)C)CC(=O)N3C)c1
CC(C)N1CC(=O)N(C)c2cnc(Nc3cc(NC(=O)[C@H](C)c4ccccc4)cc(S(C)(=O)=O)c3)nc21
CC(C)N1CC(=O)N(C)c2cnc(Nc3cc(N(C)C(=O)NCc4ccccc4)cc(S(C)(=O)=O)c3)nc21
CC(C)N1CC(=O)N(C)c2cnc(Nc3cc(N(C)C(=O)Cc4cccs4)cc(S(C)(=O)=O)c3)nc21
CC(C)N1CC(=O)N(C)c2cnc(Nc3cc(NC(=O)N[C@@H]4CCN(C5CCCC5)C4)cc(NS(C)(=O)=O)c3)nc21
CC(C)N1CC(=O)N(C)c2cnc(Nc3cc(CO)cc(S(C)(=O)=O)c3)nc21
CC(C)N1CC(=O)N(C)c2cnc(Nc3cc(NC(=O)Cc4ccsc4)cc(S(C)(=O)=O)c3)nc21
CC(C)N1CC(=O)N(C)c2cnc(Nc3cc(NC(=O)NCCc4cccnc4)cc(S(C)(=O)=O)c3)nc21
CC(C)N1CC(=O)N(C)c2cnc(Nc3cc(NC(=O)[C@@H]4CCNC4)cc(S(C)(=O)=O)c3)nc21
CCS(=O)(=O)c1cccc(Nc2ncc3c(n2)N(C2CCCCC2)CC(=O)N3C)c1
CC(C)N1CC(=O)N(C)c2cnc(Nc3cc(Br)cc(S(C)(=O)=O)c3)nc21
CC(C)N1CC(=O)N(C)c2cnc(Nc3cc(NC4CCC(N)CC4)cc(S(C)(=O)=O)c3)nc21 (centres undefined)
CC(C)N1CC(=O)N(C)c2cnc(Nc3cc(NC(=O)NCCN4CCNC4=O)cc(S(C)(=O)=O)c3)nc21
CCC(C(=O)Nc1cc(Nc2ncc3c(n2)N(C(C)C)CC(=O)N3C)cc(S(C)(=O)=O)c1)c1ccccc1 (centres undefined)
CC(C)N1CC(=O)N(C)c2cnc(Nc3cc(NC(=O)CC4CCCC4)cc(S(C)(=O)=O)c3)nc21
CC(C)N1CC(=O)N(C)c2cnc(Nc3cc(N(C)C(=O)Cc4ccsc4)cc(S(C)(=O)=O)c3)nc21
CC(C)N1CC(=O)N(C)c2cnc(Nc3cc(NS(C)(=O)=O)cc(C(=O)NCCCCN(C)C)c3)nc21
CCc1cnc(CCNC(=O)Nc2cc(Nc3ncc4c(n3)N(C(C)C)CC(=O)N4C)cc(S(C)(=O)=O)c2)o1
CC(C)N1CC(=O)N(C)c2cnc(Nc3cc(NC(=O)CC4CC4)cc(S(C)(=O)=O)c3)nc21
CC(C)N1CC(=O)N(C)c2cnc(Nc3cc(NC(=O)N(C)C[C@@H]4CCCN4C4CCCC4)cc(S(C)(=O)=O)c3)nc21
CC(C)N1CC(=O)N(C)c2cnc(Nc3cccc(S(=O)(=O)CCNC4CCC4)c3)nc21
CC(C)N1CC(=O)N(C)c2cnc(Nc3cc(NC(=O)C4CCCCN4)cc(S(C)(=O)=O)c3)nc21 (centres undefined)
CC(C)N1CC(=O)N(C)c2cnc(Nc3cc(C#N)cc(S(C)(=O)=O)c3)nc21
CCN1CCCC1CNC(=O)c1cc(Nc2ncc3c(n2)N(C(C)C)CC(=O)N3C)cc(S(C)(=O)=O)c1 (centres undefined)

Reference: the Kinase Knowledgebase extract (Sharma et al. 2016)
